# Laboratory results from patent US6355799B1, “Substituted benzene compounds, process for their preparation, and herbicidal and defoliant compositions containing them” (ISK Americas Incorporated, priority 1997, dated 2002).
# What was measured:
# Format in all cases: in vivo
# [1] = tested on: redroot pigweed (Amaranthus retroflexus, AMARE); experiment: Pre-emerge test, greenhouse herbicide activity screening; conditions: pre-emerge, phytotoxicity rating 0-100 at 14 days after application
# How it was run: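 Visual ratings on a 0-100 scale (0 no damage, 100 all plants dead) were taken at 14 days after treatment. Rates of 15-1000 g ai/ha in acetone, 187 l/ha, were sprayed onto soil one day after planting (pre-emerge) or onto 2-3 leaf plants with 0.25% v/v surfactant (post-emerge).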
# [2] = tested on: barnyardgrass (Echinochloa crus-galli, ECHCG); experiment: as above; conditions: pre-emerge, phytotoxicity rating 0-100 at 14 days after application
# How it was run: (§1)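 Compounds in acetone were track-sprayed at 187 l/ha, 15–1000 g ai/ha, onto sandy loam pots. Pre-emerge seeds were sown one day before spraying, with surface watering afterwards. Post-emerge plants were at the 2–3 leaf stage and sprayed with 0.25% v/v non-ionic surfactant. Injury was rated 0–100 at 14 days.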
# [3] = tested on: green foxtail (Setaria viridis, SETVI); experiment: as above; conditions: pre-emerge, phytotoxicity rating 0-100 at 14 days after application
# How it was run: as §1
# [4] = tested on: ivyleaf morningglory (Ipomoea hederacea, IPOHE); experiment: as above; conditions: pre-emerge, phytotoxicity rating 0-100 at 14 days after application
# How it was run: as §1
# [5] = tested on: johnsongrass (Sorghum halepense, SORHA); experiment: as above; conditions: pre-emerge, phytotoxicity rating 0-100 at 14 days after application
# How it was run: as §1
# [6] = tested on: lambsquarters (Chenopodium album, CHEAL); experiment: as above; conditions: pre-emerge, phytotoxicity rating 0-100 at 14 days after application
# How it was run: as §1
# [7] = tested on: large crabgrass (Digitaria sanguinalis, DIGSA); experiment: as above; conditions: pre-emerge, phytotoxicity rating 0-100 at 14 days after application
# How it was run: as §1
# [8] = tested on: sicklepod (Cassia obtusifolia, CASOB); experiment: as above; conditions: pre-emerge, phytotoxicity rating 0-100 at 14 days after application
# How it was run: as §1
# [9] = tested on: velvetleaf (Abutilon theophrasti, ABUTH); experiment: as above; conditions: pre-emerge, phytotoxicity rating 0-100 at 14 days after application
# How it was run: as §1
# [10] = tested on: field corn (Zea mays L., var. Dekalb 535, CORN); experiment: Pre-emerge test, crop safety; conditions: crop damage, pre-emerge, phytotoxicity rating 0-100 at 14 days after application
# How it was run: (§2)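 Plants grown in 10 cm pots of sandy loam mix received acetone-dissolved compounds through a moving flat-fan nozzle. Doses ranged from 15 to 1000 g ai/ha. Pre-emerge pots were seeded one day earlier, post-emerge pots 8–21 days earlier. Fourteen days on, each pot was graded 0–100 for damage.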
# [11] = tested on: upland rice (Oryza sp., var. Tebonnet, RICE); experiment: Pre-emerge test, crop safety; conditions: crop damage, pre-emerge, phytotoxicity rating 0-100 at 14 days after application
# How it was run: as §2
# [12] = tested on: barnyardgrass (Echinochloa crus-galli, ECHCG); experiment: Post-emerge test, greenhouse herbicide activity screening; conditions: post-emerge, phytotoxicity rating 0-100 at 14 days after application
# How it was run: (§3)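 Compounds in acetone were track-sprayed at 15-1000 g ai/ha (187 l/ha) on sandy loam pots: pre-emerge one day after seeding, post-emerge at 2-3 leaf stage with 0.25% v/v non-ionic surfactant. Phytotoxicity was rated 14 days later on a 0 (no damage) to 100 (complete death) scale.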
# [13] = tested on: green foxtail (Setaria viridis, SETVI); experiment: as above; conditions: post-emerge, phytotoxicity rating 0-100 at 14 days after application
# How it was run: as §3
# [14] = tested on: ivyleaf morningglory (Ipomoea hederacea, IPOHE); experiment: as above; conditions: post-emerge, phytotoxicity rating 0-100 at 14 days after application
# How it was run: as §3
# [15] = tested on: johnsongrass (Sorghum halepense, SORHA); experiment: as above; conditions: post-emerge, phytotoxicity rating 0-100 at 14 days after application
# How it was run: as §3
# [16] = tested on: lambsquarters (Chenopodium album, CHEAL); experiment: as above; conditions: post-emerge, phytotoxicity rating 0-100 at 14 days after application
# How it was run: as §3
# [17] = tested on: large crabgrass (Digitaria sanguinalis, DIGSA); experiment: as above; conditions: post-emerge, phytotoxicity rating 0-100 at 14 days after application
# How it was run: as §3
# [18] = tested on: redroot pigweed (Amaranthus retroflexus, AMARE); experiment: as above; conditions: post-emerge, phytotoxicity rating 0-100 at 14 days after application
# How it was run: as §3
# [19] = tested on: sicklepod (Cassia obtusifolia, CASOB); experiment: as above; conditions: post-emerge, phytotoxicity rating 0-100 at 14 days after application
# How it was run: as §3
# [20] = tested on: velvetleaf (Abutilon theophrasti, ABUTH); experiment: as above; conditions: post-emerge, phytotoxicity rating 0-100 at 14 days after application
# How it was run: as §3
# [21] = tested on: field corn (Zea mays L., var. Dekalb 535, CORN); experiment: Post-emerge test, crop safety; conditions: post-emerge, crop damage rating 0-100 at 14 days after application
# How it was run: as §1
# [22] = tested on: upland rice (Oryza sp., var. Tebonnet, RICE); experiment: Post-emerge test, crop safety; conditions: post-emerge, crop damage rating 0-100 at 14 days after application
# How it was run: as §1
compound,measurement,setting,value
O=C(Nc1cc(Cl)ccc1N1C(=O)C2=C(CCCC2)C1=O)c1ccc2ccccc2c1 [8-36],Pre-emerge Herbicidal Activity AMARE,[1]; rate 63 g ai/ha,100
same,Pre-emerge Herbicidal Activity AMARE,[1]; rate 250 g ai/ha,100
same,Pre-emerge Herbicidal Activity ECHCG,[2]; rate 63 g ai/ha,0
same,Pre-emerge Herbicidal Activity ECHCG,[2]; rate 250 g ai/ha,0
same,Pre-emerge Herbicidal Activity SETVI,[3]; rate 63 g ai/ha,0
same,Pre-emerge Herbicidal Activity SETVI,[3]; rate 250 g ai/ha,30
same,Pre-emerge Herbicidal Activity IPOHE,[4]; rate 63 g ai/ha,10
same,Pre-emerge Herbicidal Activity IPOHE,[4]; rate 250 g ai/ha,20
same,Pre-emerge Herbicidal Activity SORHA,[5]; rate 63 g ai/ha,0
same,Pre-emerge Herbicidal Activity SORHA,[5]; rate 250 g ai/ha,0
same,Pre-emerge Herbicidal Activity CHEAL,[6]; rate 63 g ai/ha,100
same,Pre-emerge Herbicidal Activity CHEAL,[6]; rate 250 g ai/ha,100
same,Pre-emerge Herbicidal Activity DIGSA,[7]; rate 63 g ai/ha,0
same,Pre-emerge Herbicidal Activity DIGSA,[7]; rate 250 g ai/ha,40
same,Pre-emerge Herbicidal Activity CASOB,[8]; rate 63 g ai/ha,10
same,Pre-emerge Herbicidal Activity CASOB,[8]; rate 250 g ai/ha,30
same,Pre-emerge Herbicidal Activity ABUTH,[9]; rate 63 g ai/ha,80
same,Pre-emerge Herbicidal Activity ABUTH,[9]; rate 250 g ai/ha,30
same,Pre-emerge Herbicidal Activity CORN,[10]; rate 63 g ai/ha,0
same,Pre-emerge Herbicidal Activity CORN,[10]; rate 250 g ai/ha,0
same,Pre-emerge Herbicidal Activity RICE,[11]; rate 63 g ai/ha,20
same,Pre-emerge Herbicidal Activity RICE,[11]; rate 250 g ai/ha,40
same,Post-emerge Herbicidal Activity ECHCG,[12]; 63 g ai/ha,0
same,Post-emerge Herbicidal Activity ECHCG,[12]; 250 g ai/ha,20
same,Post-emerge Herbicidal Activity SETVI,[13]; 63 g ai/ha,10
same,Post-emerge Herbicidal Activity SETVI,[13]; 250 g ai/ha,10
same,Post-emerge Herbicidal Activity IPOHE,[14]; 63 g ai/ha,100
same,Post-emerge Herbicidal Activity IPOHE,[14]; 250 g ai/ha,85
same,Post-emerge Herbicidal Activity SORHA,[15]; 63 g ai/ha,0
same,Post-emerge Herbicidal Activity SORHA,[15]; 250 g ai/ha,10
same,Post-emerge Herbicidal Activity CHEAL,[16]; 63 g ai/ha,95
same,Post-emerge Herbicidal Activity CHEAL,[16]; 250 g ai/ha,100
same,Post-emerge Herbicidal Activity DIGSA,[17]; 63 g ai/ha,10
same,Post-emerge Herbicidal Activity DIGSA,[17]; 250 g ai/ha,5
same,Post-emerge Herbicidal Activity AMARE,[18]; 63 g ai/ha,95
same,Post-emerge Herbicidal Activity AMARE,[18]; 250 g ai/ha,90
same,Post-emerge Herbicidal Activity CASOB,[19]; 63 g ai/ha,70
same,Post-emerge Herbicidal Activity CASOB,[19]; 250 g ai/ha,95
same,Post-emerge Herbicidal Activity ABUTH,[20]; 63 g ai/ha,100
same,Post-emerge Herbicidal Activity ABUTH,[20]; 250 g ai/ha,100
same,Post-emerge Herbicidal Activity CORN,[21]; 63 g ai/ha,10
same,Post-emerge Herbicidal Activity CORN,[21]; 250 g ai/ha,15
same,Post-emerge Herbicidal Activity RICE,[22]; 63 g ai/ha,10
same,Post-emerge Herbicidal Activity RICE,[22]; 250 g ai/ha,20
COc1c(Cl)cc(F)c(-n2c(=O)n3n(c2=O)CCCC3)c1NC(=O)c1ccc(F)cc1F [9-16],Pre-emerge Herbicidal Activity AMARE,[1]; rate 63 g ai/ha,70
same,Pre-emerge Herbicidal Activity AMARE,[1]; rate 250 g ai/ha,100
same,Pre-emerge Herbicidal Activity ECHCG,[2]; rate 63 g ai/ha,0
same,Pre-emerge Herbicidal Activity ECHCG,[2]; rate 250 g ai/ha,40
same,Pre-emerge Herbicidal Activity SETVI,[3]; rate 63 g ai/ha,39
same,Pre-emerge Herbicidal Activity SETVI,[3]; rate 250 g ai/ha,70
same,Pre-emerge Herbicidal Activity IPOHE,[4]; rate 63 g ai/ha,70
same,Pre-emerge Herbicidal Activity IPOHE,[4]; rate 250 g ai/ha,70
same,Pre-emerge Herbicidal Activity SORHA,[5]; rate 63 g ai/ha,10
same,Pre-emerge Herbicidal Activity SORHA,[5]; rate 250 g ai/ha,40
same,Pre-emerge Herbicidal Activity CHEAL,[6]; rate 63 g ai/ha,100
same,Pre-emerge Herbicidal Activity CHEAL,[6]; rate 250 g ai/ha,100
same,Pre-emerge Herbicidal Activity DIGSA,[7]; rate 63 g ai/ha,10
same,Pre-emerge Herbicidal Activity DIGSA,[7]; rate 250 g ai/ha,40
same,Pre-emerge Herbicidal Activity CASOB,[8]; rate 63 g ai/ha,20
same,Pre-emerge Herbicidal Activity CASOB,[8]; rate 250 g ai/ha,60
same,Pre-emerge Herbicidal Activity ABUTH,[9]; rate 63 g ai/ha,100
same,Pre-emerge Herbicidal Activity ABUTH,[9]; rate 250 g ai/ha,100
same,Pre-emerge Herbicidal Activity CORN,[10]; rate 63 g ai/ha,0
same,Pre-emerge Herbicidal Activity CORN,[10]; rate 250 g ai/ha,90
same,Pre-emerge Herbicidal Activity RICE,[11]; rate 63 g ai/ha,80
same,Pre-emerge Herbicidal Activity RICE,[11]; rate 250 g ai/ha,90
same,Post-emerge Herbicidal Activity ECHCG,[12]; 63 g ai/ha,0
same,Post-emerge Herbicidal Activity ECHCG,[12]; 250 g ai/ha,10
same,Post-emerge Herbicidal Activity SETVI,[13]; 63 g ai/ha,0
same,Post-emerge Herbicidal Activity SETVI,[13]; 250 g ai/ha,20
same,Post-emerge Herbicidal Activity IPOHE,[14]; 63 g ai/ha,90
same,Post-emerge Herbicidal Activity IPOHE,[14]; 250 g ai/ha,100
same,Post-emerge Herbicidal Activity SORHA,[15]; 63 g ai/ha,0
same,Post-emerge Herbicidal Activity SORHA,[15]; 250 g ai/ha,0
same,Post-emerge Herbicidal Activity CHEAL,[16]; 63 g ai/ha,65
same,Post-emerge Herbicidal Activity CHEAL,[16]; 250 g ai/ha,80
same,Post-emerge Herbicidal Activity DIGSA,[17]; 63 g ai/ha,10
same,Post-emerge Herbicidal Activity DIGSA,[17]; 250 g ai/ha,0
same,Post-emerge Herbicidal Activity AMARE,[18]; 63 g ai/ha,30
same,Post-emerge Herbicidal Activity AMARE,[18]; 250 g ai/ha,75
same,Post-emerge Herbicidal Activity CASOB,[19]; 63 g ai/ha,50
same,Post-emerge Herbicidal Activity CASOB,[19]; 250 g ai/ha,85
same,Post-emerge Herbicidal Activity ABUTH,[20]; 63 g ai/ha,100
same,Post-emerge Herbicidal Activity ABUTH,[20]; 250 g ai/ha,100
same,Post-emerge Herbicidal Activity CORN,[21]; 63 g ai/ha,5
same,Post-emerge Herbicidal Activity CORN,[21]; 250 g ai/ha,65
same,Post-emerge Herbicidal Activity RICE,[22]; 63 g ai/ha,30
same,Post-emerge Herbicidal Activity RICE,[22]; 250 g ai/ha,70
